{"source": "paper PMC12395807", "about": "“Chemoreceptor family in plant-associated bacteria responds preferentially to the plant signal molecule glycerol 3-phosphate” (Genome Biology, 2025)", "key": {"[1]": {"target": "LBD of chemoreceptor R6 (WP_174062248.1)", "assay": "ITC binding to R6-LBD", "design": "species or system Agrobacterium larrymoorei", "settings": "20 °C, Nb = no binding", "procedure": "(§1) Plasmids for the overexpression of the different proteins were transformed into E. coli BL21(DE3). The resulting strains were grown under continuous stirring (200 rpm) at 30 °C in 2-L Erlenmeyer flasks containing 500 mL of LB medium supplemented with 50 μg/mL kanamycin. At an OD660 of 0.5, protein expression was induced by the addition of 0.1 mM isopropyl β-D-1-thiogalactopyranoside. Growth was continued at 16 °C overnight prior to cell harvesting by centrifugation at 10,000 × g for 20 min. Cell pellets were resuspended in buffer A (Additional file 2: Table S4) and subsequently broken by French press treatment at 62.5 lb/in^2. After centrifugation at 20,000 × g for 30 min, the supernatants were loaded onto 5-mL HisTrap HP columns (Amersham Biosciences) equilibrated with buffer A, and the proteins were eluted with a linear gradient of buffer B (Additional file 2: Table S4). All proteins contain a hexa-histidine tag at the N-terminal extension (Additional file 2: Table S3) and were purified at 4 °C. The purified proteins were dialyzed overnight into the corresponding analysis buffers (Additional file 2: Table S4) for immediate analysis.\n(§2) All experiments were conducted on a VP microcalorimeter (Microcal, MA) at 15 °C for PacP-LBD and at 20 °C for the remaining proteins. Proteins were dialyzed into the analysis buffers specified in Additional file 2: Table S4, placed into the sample cell and titrated with aliquots of ligand solutions (1 to 10 mM) freshly prepared in dialysis buffer. The mean enthalpies measured from the injection of the ligands into the analysis buffer were subtracted from the raw titration data prior to data analysis with the MicroCal version of ORIGIN. The data were fitted with the “One binding site model” of ORIGIN."}, "[2]": {"tested_on": "Pectobacterium atrosepticum SCRI1043", "assay": "Growth experiment, sole carbon source", "format": "cell-based", "settings": "PFM9 minimal medium, 5 mM ligand, 30 °C, 48 h", "procedure": "(§3) P. atrosepticum SCRI1043 was cultured overnight in phosphate-free M9-based medium (PFM9) supplemented with 20 mM glucose as the carbon source and 500 µM inorganic phosphate as the phosphate source. Cultures were washed and then diluted to an OD600 of 0.02 in PFM9 supplemented with different PacP ligands as the sole carbon or phosphorous source at a final concentration of 5 mM. Subsequently, 200 µL aliquots of these cultures were transferred into microwell plates, which were subsequently grown at 30 °C on a Bioscreen microbiological growth analyzer (Oy Growth Curves Ab Ltd., Helsinki, Finland) for 48 h."}, "[3]": {"tested_on": "PacP-LBD mutant (Y86, H100, R105, Y121, K148 and Y167 replaced by alanine)", "assay": "ITC binding to PacP-LBD binding site motif mutant", "design": "species or system Pectobacterium atrosepticum", "settings": "36 μM PacP-LBD alanine mutant; 1 mM glycerol 3-phosphate, 2.5 mM glyceraldehyde 3-phosphate", "procedure": "as §1, with “The purified proteins were dialyzed overnight into the corresponding analysis buffers (Additional file 2: Table S4) for immediate analysis.” left out\nAll experiments were conducted on a VP microcalorimeter (Microcal, MA) at 15 °C for PacP-LBD and at 20 °C for the remaining proteins. […] The mean enthalpies measured from the injection of the ligands into the analysis buffer were subtracted from the raw titration data prior to data analysis with the MicroCal version of ORIGIN. […]"}, "[4]": {"target": "LBD of chemoreceptor R5 (WP_028444678.1)", "assay": "ITC binding to R5-LBD", "design": "species or system Chitinimonas koreensis", "settings": "20 °C, Nb = no binding", "procedure": "as §1, §2"}, "[5]": {"target": "LBD of chemoreceptor R3 (WP_006464688.1) (Herbaspirillum frisingense, UniProt A0ABU1PC34)", "sequence (A0ABU1PC34 entry or part of it)": "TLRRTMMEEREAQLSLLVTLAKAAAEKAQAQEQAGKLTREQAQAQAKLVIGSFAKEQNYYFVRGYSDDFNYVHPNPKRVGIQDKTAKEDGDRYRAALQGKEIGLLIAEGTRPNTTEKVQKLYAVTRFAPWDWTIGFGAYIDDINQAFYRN", "assay": "ITC binding to R3-LBD", "settings": "20 °C, Nb = no binding", "procedure": "as §1, §2"}, "[6]": {"target": "LBD of chemoreceptor R9 (WP_189529961.1) (Paludibacterium paludis, UniProt A0A918NWY2)", "sequence (A0A918NWY2 entry or part of it)": "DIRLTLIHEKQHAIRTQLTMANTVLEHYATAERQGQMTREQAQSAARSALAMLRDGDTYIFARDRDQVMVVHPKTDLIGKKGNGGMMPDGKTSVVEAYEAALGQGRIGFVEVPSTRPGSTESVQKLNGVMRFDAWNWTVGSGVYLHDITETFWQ", "assay": "ITC binding to R9-LBD", "settings": "20 °C, Nb = no binding", "procedure": "as §1, §2"}, "[7]": {"tested_on": "Pectobacterium atrosepticum SCRI1043", "assay": "Growth experiment, sole phosphorus source", "format": "cell-based", "settings": "PFM9 minimal medium, 5 mM ligand, 30 °C, 48 h", "procedure": "as §3"}, "[8]": {"target": "LBD of chemoreceptor R4 (WP_158281851.1) (Rivihabitans pingtungensis, UniProt A0A318KJN4)", "sequence (A0A318KJN4 entry or part of it)": "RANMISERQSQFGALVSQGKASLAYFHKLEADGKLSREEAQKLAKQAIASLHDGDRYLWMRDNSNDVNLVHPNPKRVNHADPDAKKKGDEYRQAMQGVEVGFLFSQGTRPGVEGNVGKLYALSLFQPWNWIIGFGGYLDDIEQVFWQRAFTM", "assay": "ITC binding to R4-LBD", "design": "species or system Rivicola pingtungensis", "settings": "20 °C, Nb = no binding", "procedure": "as §1, §2"}, "[9]": {"target": "ligand binding domain of the chemoreceptor ECA_RS12390 (PacP-LBD, R1, WP_011094075.1) (Pectobacterium atrosepticum, UniProt Q6D464)", "sequence (Q6D464 entry or part of it)": "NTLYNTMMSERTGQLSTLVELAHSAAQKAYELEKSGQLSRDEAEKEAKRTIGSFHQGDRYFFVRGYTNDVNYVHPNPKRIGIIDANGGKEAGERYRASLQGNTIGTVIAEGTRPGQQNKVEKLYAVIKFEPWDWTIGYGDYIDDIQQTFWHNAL", "assay": "ITC binding to PacP-LBD", "settings": "15 °C, Nb = no binding", "procedure": "as §1, §2"}, "ITC binding to R7-LBD": {"assay": "ITC binding to R7-LBD", "design": "species or system Methyloversatilis discipulorum", "settings": "20 °C, Nb = no binding", "procedure": "as §1, §2"}, "P. atrosepticum SCRI1043": {"tested_on": "P. atrosepticum SCRI1043", "assay": "Quantitative capillary chemotaxis assay, wild type", "format": "cell-based, Pectobacterium atrosepticum", "settings": "wild type SCRI1043, 1 mM ligand, 30 min", "procedure": "(§4) Overnight cultures of P. atrosepticum SCRI1043 were grown at 30 °C in minimal medium. At an OD660 of 0.4–0.45, the cultures were washed twice with chemotaxis buffer (50 mM K2HPO4/KH2PO4, 20 μM EDTA, 0.05% (v/v) glycerol, pH 7.0) and diluted to an OD660 of 0.1 in the same buffer. Subsequently, 230 μL of the resulting bacterial suspension was placed into the wells of 96-well plates. One-microliter capillary tubes (P1424, Microcaps; Drummond Scientific) were heat-sealed at one end and filled with either chemotaxis buffer (negative control) or chemotaxis buffer containing PacP ligands at a concentration of 1 mM. The capillaries were immersed in the bacterial suspensions at their open ends. After 30 min at room temperature, the capillaries were removed from the bacterial suspensions, rinsed with sterile water, and the contents were expelled into 1 mL of 40 mM K2HPO4, 15 mM KH2PO4. Serial dilutions were plated onto minimal medium supplemented with 15 mM glucose as the carbon source. The number of colony-forming units was determined after 36 h of incubation at 30 °C. In all the cases, the data were corrected with the number of cells that swam into the buffer-containing capillaries."}, "[10]": {"tested_on": "P. atrosepticum SCRI1043 pacP mutant (MpacP)", "assay": "Quantitative capillary chemotaxis assay, pacP mutant", "format": "cell-based, Pectobacterium atrosepticum", "settings": "1 mM ligand", "from_the_text": "A mutant defective in ECA_RS12390 was constructed by homologous recombination using a derivative plasmid of the suicide vector pKNG101. Briefly, a 0.5-kb fragment corresponding to the region encoding the LBD of ECA_RS12390 was amplified by the primers specified in Additional file 2: Table S2 and cloned into pGEM®-T. The resulting plasmid pGEM::ECA_RS12390 was digested with XmaI, and the 0.5-kb insert was cloned into the same site at pKNG101 to generate pKNG101::ECA_RS12390. This plasmid was subsequently transformed into P. atrosepticum SRCI1043 via biparental conjugation using E. coli β2163. All the plasmids were verified by PCR and sequencing. The pETb(+) derivatives encoding the LBD of the different receptors analyzed in this study (Table 1) were purchased from GeneScript. Plasmid pBBR-ECA_RS12390 was constructed by amplifying the pacP gene using the primers detailed in Additional file 2: Table S2 and cloning of the PCR product into the NdeI/BamHI sites of pBBR1MCS2_START. The sequences of the proteins analyzed in this study are provided in Additional file 2: Table S3. The ECA_RS12390 nucleotide sequence is available in the published genome of P. atrosepticum SCRI1043 [60].\nas §4"}, "[11]": {"target": "LBD of chemoreceptor R10 (WP_028866120.1)", "assay": "ITC binding to R10-LBD", "design": "species or system Psychromonas aquimarina", "settings": "20 °C, Nb = no binding", "procedure": "as §1, §2"}}}
{"molecule": "O=CC(O)COP(=O)(O)O", "note": "(stereo not shown) [glyceraldehyde 3-phosphate]", "values": [{"measurement": "KD", "setting": "[1]", "result": "Nb"}, {"measurement": "growth as sole carbon source", "setting": "[2]", "result": "devoid of apparent metabolic value"}, {"measurement": "binding in microcalorimetric titration", "setting": "[3]", "result": "absence of binding"}, {"measurement": "KD", "setting": "[4]", "result": "Nb"}, {"measurement": "KD", "setting": "[5]", "result": "Nb"}, {"measurement": "KD", "setting": "[6]", "result": "Nb"}, {"measurement": "growth as sole phosphorus source", "setting": "[7]", "result": "devoid of apparent metabolic value"}, {"measurement": "Kd", "setting": "[8]", "result": "100 ± 2", "unit": "µM"}, {"measurement": "Kd", "setting": "[9]", "result": "58 ± 2", "unit": "µM"}, {"measurement": "Kd", "setting": "ITC binding to R7-LBD", "result": "126 ± 9", "unit": "µM"}, {"measurement": "chemotaxis (capillary assay)", "setting": "P. atrosepticum SCRI1043", "result": "Modest chemoattraction"}, {"measurement": "chemotaxis (capillary assay)", "setting": "[10]", "result": "Only glycerol 2-phosphate served as an attractant for the mutant"}, {"measurement": "KD", "setting": "[11]", "result": "Nb"}]}
